The values below come from US20080262097A1, “Formulations” (priority 2005, published 2008).

Converted amounts (≈) assume the structure as drawn. Where two headings read alike, the source gives them in different places.

In test [1] the test system is P. acnes PRP-002. In words: MIC assay. The conditions noted are these: Cutibacterium acnes, PRP002; P. acnes PRP-002 (resistance Tet/MLS). The test is classed as cell-based, Propionibacterium acnes. The protocol: (§1) The Propionibacterium spp organisms were cultured and maintained on Wilkins-Chalgren Anaerobe Medium (agar and broth) at pH 6.0; cultures were incubated anaerobically at 37° C. for 72 hours.
(§2) This is a standard international method for quantitatively assessing the antimicrobial activity of a compound in a liquid medium. The method used a 96-well microtitre plate, capable of holding about 200 μl of liquid per well. […] The culture media were as described above for the relevant test organisms.
(§3) The wells were inoculated with a liquid suspension of freshly grown micro-organism and incubated under the conditions described above. After incubation, the microtitre plate was examined visually (with the aid of a light box) for cell pellets in and/or opaque wells, which would indicate microbial growth. The MIC value was recorded as the lowest concentration of test compound required to inhibit microbial growth, ie, the lowest concentration for which the liquid in the well remained clear.
(§4) The assays were conducted in duplicate and included both negative (culture medium only) and positive (culture medium, diluting solvent and inoculum) controls.

Test [2] deals with P. acnes PRP-003. The experiment in a line: MIC assay. The test is classed as cell-based, Propionibacterium acnes. Particulars: Cutibacterium acnes, PRP003; P. acnes PRP-003 (resistance Tet). Here is the method: as §1, §2, §3, §4
Test [3] has as its system P. acnes PRP-004. In words: MIC assay. The test is classed as cell-based, Propionibacterium acnes. Particulars: Cutibacterium acnes, PRP004; P. acnes PRP-004 (resistance Tet). Here is the method:
as §1, §2, §3, §4

Test [4] relates to P. acnes PRP-007. In words: MIC assay. Particulars: Cutibacterium acnes, PRP007; P. acnes PRP-007 (resistance Clin). In kind it is cell-based, Propionibacterium acnes. The protocol:
as §1, §2, §3, §4

In test [5] the test system is P. acnes PRP-017. In words: MIC assay. The conditions noted are these: Cutibacterium acnes, PRP017; P. acnes PRP-017 (resistance MLS). In kind it is cell-based, Propionibacterium acnes. The protocol: as §1, §2, §3, §4
Test [6] deals with P. acnes PRP-026. In words: MIC assay. In kind it is cell-based, Propionibacterium acnes. Particulars: Cutibacterium acnes, PRP026; P. acnes PRP-026 (resistance MLS). The protocol:
as §1, §2, §3, §4

Test [7] relates to P. acnes PRP-046. The experiment in a line: MIC assay. The test is classed as cell-based, Propionibacterium acnes. Particulars: Cutibacterium acnes, PRP046; P. acnes PRP-046 (resistance None). The protocol: as §1, §2, §3, §4
In test [8] the test system is P. acnes PRP-068. The experiment in a line: MIC assay. In kind it is cell-based, Propionibacterium acnes. The conditions noted are these: Cutibacterium acnes, PRP068; P. acnes PRP-068 (resistance Ery). Here is the method:
as §1, §2, §3, §4

The subject of test [9] is P. acnes PRP-101. The experiment in a line: MIC assay. In kind it is cell-based, Propionibacterium acnes. The conditions noted are these: Cutibacterium acnes, PRP101; P. acnes PRP-101 (resistance Tet/MLS). The protocol: as §1, §2, §3, §4
In test [10] the test system is P. acnes PRP-102. The experiment in a line: MIC assay. The test is classed as cell-based, Propionibacterium acnes. Particulars: Cutibacterium acnes, PRP102; P. acnes PRP-102 (resistance Tet/MLS). The protocol: as §1, §2, §3, §4
For test [11], the system named is P. acnes PRP-002. In words: MBC assay. The test is classed as cell-based, Propionibacterium acnes. The conditions noted are these: Cutibacterium acnes, PRP002; P. acnes PRP-002 (resistance Tet/MLS). Here is the method:
as §1
(§5) This assay, normally carried out after an MIC assay, determines the minimum concentration of a compound that is lethal to the micro-organism being tested.
(§6) These samples were then individually sub-cultured on non-selective agar medium, under the incubation conditions described above. Following incubation they were examined visually for bacterial growth.

The subject of test [12] is P. acnes PRP-003. In words: MBC assay. The test is classed as cell-based, Propionibacterium acnes. Particulars: Cutibacterium acnes, PRP003; P. acnes PRP-003 (resistance Tet). Here is the method: as §1, §5, §6
Test [13] deals with P. acnes PRP-004. In words: MBC assay. The test is classed as cell-based, Propionibacterium acnes. The conditions noted are these: Cutibacterium acnes, PRP004; P. acnes PRP-004 (resistance Tet). Here is the method:
as §1, §5, §6

Test [14] deals with P. acnes PRP-007. In words: MBC assay. The test is classed as cell-based, Propionibacterium acnes. Particulars: Cutibacterium acnes, PRP007; P. acnes PRP-007 (resistance Clin). Here is the method:
as §1, §5, §6

Test [15] deals with P. acnes PRP-008. The experiment in a line: MBC assay. The conditions noted are these: Cutibacterium acnes, PRP008; P. acnes PRP-008 (resistance Clin). In kind it is cell-based, Propionibacterium acnes. The protocol: as §1, §5, §6
The subject of test [16] is P. acnes PRP-017. In words: MBC assay. The test is classed as cell-based, Propionibacterium acnes. The conditions noted are these: Cutibacterium acnes, PRP017; P. acnes PRP-017 (resistance MLS). The protocol:
as §1, §5, §6

The subject of test [17] is P. acnes PRP-023. In words: MBC assay. In kind it is cell-based, Propionibacterium acnes. Particulars: Cutibacterium acnes, PRP023; P. acnes PRP-023 (resistance MLSK). The protocol: as §1, §5, §6
Test [18] has as its system P. acnes PRP-026. The experiment in a line: MBC assay. The test is classed as cell-based, Propionibacterium acnes. The conditions noted are these: Cutibacterium acnes, PRP026; P. acnes PRP-026 (resistance MLS). Here is the method:
as §1, §5, §6

The subject of test [19] is P. acnes PRP-046. In words: MBC assay. The conditions noted are these: Cutibacterium acnes, PRP046; P. acnes PRP-046 (resistance None). The test is classed as cell-based, Propionibacterium acnes. The protocol:
as §1, §5, §6

Test [20] concerns P. acnes PRP-059. In words: MBC assay. The test is classed as cell-based, Propionibacterium acnes. Particulars: Cutibacterium acnes, PRP059; P. acnes PRP-059 (resistance MLS). The protocol: as §1, §5, §6
Test [21] relates to P. acnes PRP-068. In words: MBC assay. In kind it is cell-based, Propionibacterium acnes. Particulars: Cutibacterium acnes, PRP068; P. acnes PRP-068 (resistance Ery). Here is the method: as §1, §5, §6
Test [22] has as its system P. acnes PRP-101. The experiment in a line: MBC assay. The test is classed as cell-based, Propionibacterium acnes. The conditions noted are these: Cutibacterium acnes, PRP101; P. acnes PRP-101 (resistance Tet/MLS). Here is the method: as §1, §5, §6
Test [23] deals with P. acnes PRP-102. The experiment in a line: MBC assay. Particulars: Cutibacterium acnes, PRP102; P. acnes PRP-102 (resistance Tet/MLS). The test is classed as cell-based, Propionibacterium acnes. Here is the method:
as §1, §5, §6

Test [24] relates to E faecalis ATCC 29212. In words: MBC assay. In kind it is cell-based. The conditions noted are these: Enterococcus faecalis, ATCC29212.
From the text: 3. Enterococcus faecalis ATCC 29212—this is a Gram-positive bacterium belonging to the genus Enterococcus. Enterococci have similar properties to streptococci, but differ in their ability to grow on bile-salt containing media such as MacConkey's Agar. Their principal habitat is the mammalian gastrointestinal tract. They cause a number of important infections including endocarditis, urinary tract infections and abscesses. In the context of skin, they are frequently isolated from wound infections. Unlike the streptococci, the enterococci have developed widespread resistance to penicillin. More recently, E. faecalis and E. faecium strains have also developed resistance to the glycopeptide antibiotics such as vancomycin. Vancomycin-Resistant Enterococci (VRE), principally vanA strains of E. faecium, now represent a serious healthcare-acquired infection hazard in the USA, Japan and Western Europe.
The staphylococci and enterococci were cultured and maintained on Mueller-Hinton Medium (agar and broth) at pH 7.2; they were incubated aerobically at 37° C. for 24 hours.
as §5
These samples were then individually sub-cultured on non-selective agar medium, under the incubation conditions described above. […]

The MIC is the lowest concentration that inhibits growth of the organism. By MBC is commonly meant the lowest tested concentration that kills the bacteria rather than only halting them. As to `O=C(OOC(=O)c1ccccc1)c1ccccc1` [benzoyl peroxide], the MIC in test [1] is 15.6 µg/mL (≈ 64.4 µM); in test [2] it was 31.2 µg/mL (≈ 129 µM); in test [3], 7.8 µg/mL (≈ 32.2 µM); in test [4], 31.2 µg/mL (≈ 129 µM); in [5] it was 31.2 µg/mL (≈ 129 µM); in test [6], 15.6 µg/mL (≈ 64.4 µM). The minimal inhibitory concentration (MIC) in [7] was found to be 31.2 µg/mL (≈ 129 µM); in [8], 62.5 µg/mL (≈ 258 µM); in [9], 15.6 µg/mL (≈ 64.4 µM); in test [10], 62.5 µg/mL (≈ 258 µM). Besides, the MBC came to 31.2 µg/mL (≈ 129 µM) in test [11]; 31.2 µg/mL (≈ 129 µM) in test [12]; 15.6 µg/mL (≈ 64.4 µM) in test [13]; 62.5 µg/mL (≈ 258 µM) in test [14]; 31.2 µg/mL (≈ 129 µM) in test [15]; 62.5 µg/mL (≈ 258 µM) in test [16]. Moreover, the MBC in test [17] came out at 62.5 µg/mL (≈ 258 µM); in test [18], 31.2 µg/mL (≈ 129 µM); in test [19] it was 62.5 µg/mL (≈ 258 µM); in test [20] it was 125 µg/mL (≈ 516 µM); in [21], 125 µg/mL (≈ 516 µM); in [22], 31.2 µg/mL (≈ 129 µM). In addition, the MBC in test [23] is 62.5 µg/mL (≈ 258 µM); in test [24] (E faecalis ATCC 29212, read-out: MBC), over 250 µg/mL.
For the molecule `CC(C)(C)c1cc(O)ccc1O` [TBHQ, t-butyl hydroquinone], the MIC in test [1] turned out to be 3.9 µg/mL (≈ 23.5 µM); in test [2] it was 7.8 µg/mL (≈ 46.9 µM); in [3], 1.95 µg/mL (≈ 11.7 µM); in test [4], 3.9 µg/mL (≈ 23.5 µM); in test [5], 3.9 µg/mL (≈ 23.5 µM); in test [6], 3.9 µg/mL (≈ 23.5 µM). The MIC in test [7] is 1.95 µg/mL (≈ 11.7 µM); in test [8], 3.9 µg/mL (≈ 23.5 µM); in test [9] it was 3.9 µg/mL (≈ 23.5 µM); in test [10], 7.8 µg/mL (≈ 46.9 µM). For the same molecule, the MBC in [11], in [12], in test [13], in test [14], in test [15] and in test [16] was 7.8 µg/mL (≈ 46.9 µM) in each case. Also, the MBC in test [17], in test [18], in [19], in [20], in [21] and in test [22] was 7.8 µg/mL (≈ 46.9 µM) throughout. Further, the figures for the MBC in test [23] and in test [24] were 15.6 µg/mL (≈ 93.9 µM) and 31.2 µg/mL, respectively.
